Holding throughout (assay): inhibition of tumour cell growth, NCI panel, 48 h
Assay [1] has as its system EKVX NSCLC.
Assay [2] has as its system HCC-2998 colon.
Assay [3] relates to HCT-116 colon.
For assay [4], the system named is HCT-15 colon.
Assay [5] concerns IGROV1 ovarian.
In assay [6] the test system is M14 melanoma.
In assay [7] the test system is MOLT-4 leukemia.
Assay [8] relates to PC-3 prostate.
Assay [9] concerns SN12C renal.
Assay [10] concerns UACC-62 melanoma.

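Grown in 96-well plates, cells were treated for 48 hours with each compound at five concentrations. Insufficient inhibition: endpoint recorded as highest concentration tested. GI50 marks 50% less growth. At the TGI there is no net growth.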

`OC(c1ccc(Cl)cc1)(c1ccc(Cl)cc1)C(O)(c1ccc(Cl)cc1)c1ccc(Cl)cc1`: the GI50 in [1] is 3.14 µM; in [2], 2.56 µM; in [3], 2.02 µM; in [4] it was 2.93 µM; in assay [5], 1.97 µM; in assay [6], 3.23 µM. For the same compound, the GI50 in [7] is 3.18 µM; in assay [8], 3.25 µM; in [9], 3.06 µM; in [10], 2.41 µM. For the same compound, the TGI in [1], in assay [2], in assay [3], in [4], in assay [5] and in assay [6] was over 100 µM each time. Besides, the TGI in [7], in assay [8], in assay [9] and in assay [10] was over 100 µM in each case.

Values taken from PubChem BioAssay (NCI).
